Earlier results, collected in paper PMC8354143, “Cy3-RgIA-5727 Labels and Inhibits α9-Containing nAChRs of Cochlear Hair Cells” (Frontiers in Cellular Neuroscience, 2021).

Columns and labels:
[1] = test system: voltage-gated calcium channels in the efferent terminals

Substance | antagonism of α9-containing nAChRs (α9-containing nAChRs) | time course of block of voltage-gated calcium channels [1]
α-Conotoxin-RgIA | specific and potent antagonist of α9-containing nAChRs | 
ω-conotoxin GVIA |  | 15 to 20 min
